Measurements as given in US10988523B2, “Modified lipidated Relaxin B chain peptides and their therapeutic use” (Sanofi, priority 2018, dated 2021).
*1 amine or outer side, *2 acyl side, *3 side chain or, on linkers, in order; H or OH if unused. Where a SMILES comes first, the peptide text is derived from it. Primed or numbered codes have the meaning given here. Side-chain parts run from the residue outwards. [ ]: non-standard residue; d: D form. The star is where a group is joined. γGlu = O=C(O)[C@H](CCC(=O)[*:2])N[*:1]; Stearoyl = CCCCCCCCCCCCCCCCCC(=O)*; Palmitoyl = CCCCCCCCCCCCCCCC(=O)*; Nle = CCCC[C@H](N)C(=O)O; PEG2″ = not defined here; Aib = CC(C)(N)C(=O)O

Biological target: T1, RXFP1 (Homo sapiens, UniProt Q9HBX9)
T1 construct: OVCAR5 cells expressing endogenous RXFP1; endogenous in cells; host or cells: OVCAR5 cells
T1 sequence (Q9HBX9 1-757): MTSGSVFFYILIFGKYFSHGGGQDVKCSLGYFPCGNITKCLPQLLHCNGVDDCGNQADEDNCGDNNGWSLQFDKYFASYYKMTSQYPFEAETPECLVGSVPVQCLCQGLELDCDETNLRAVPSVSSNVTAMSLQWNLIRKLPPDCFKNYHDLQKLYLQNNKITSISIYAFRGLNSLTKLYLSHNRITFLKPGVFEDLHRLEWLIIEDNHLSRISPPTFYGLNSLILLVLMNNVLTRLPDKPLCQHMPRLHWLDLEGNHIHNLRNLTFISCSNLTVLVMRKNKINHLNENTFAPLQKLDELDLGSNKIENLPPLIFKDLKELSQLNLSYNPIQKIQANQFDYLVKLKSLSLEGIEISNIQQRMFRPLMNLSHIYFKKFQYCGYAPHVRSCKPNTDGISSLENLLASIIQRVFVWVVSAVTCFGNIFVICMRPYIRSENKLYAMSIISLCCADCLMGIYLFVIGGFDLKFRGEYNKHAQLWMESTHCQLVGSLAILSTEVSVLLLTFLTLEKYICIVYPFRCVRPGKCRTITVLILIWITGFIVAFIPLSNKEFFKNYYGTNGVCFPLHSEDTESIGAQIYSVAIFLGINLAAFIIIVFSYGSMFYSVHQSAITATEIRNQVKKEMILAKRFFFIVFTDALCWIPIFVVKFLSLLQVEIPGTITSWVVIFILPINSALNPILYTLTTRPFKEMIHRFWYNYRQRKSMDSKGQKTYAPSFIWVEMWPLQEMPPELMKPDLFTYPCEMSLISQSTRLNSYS
Assay: OVCAR5 cAMP assay (HTRF), RXFP1 agonist activity
Type: cell-based
Details: for EC50: OVCAR5 cells, cAMP HTRF, read-out: EC50 (nM), OVCAR 5 cells (cAMP); for Emax: OVCAR-5, read-out: EMax, OVCAR 5 cells (cAMP)
Excerpt: OVCAR5 cells expressing endogenous RXFP1 were used to test RXP1 agonist properties of peptides of the invention, and in particular of the peptides of sequence SEQ ID NO: 1-193.
Since RXFP1 is a Gs coupled GPCR, cAMP was used as readout of RXFP1 activation.
Isobutyl Methyl Xanthine (IBMX) was used to inhibit phosphodiesterase activity facilitating cAMP measurements. HTRF (Homogenous Time Resolved Fluorescence) technology was used to detect cAMP due to its great sensitivity.
In summary, OVCAR5 were grown in regular medium (RPMI) containing 10% fetal calf serum (FCS) and 1% antibiotics (penicillin/streptomycin).
Before the experiments, cells were detached with accutase and incubated for 40 minutes at 37° C. with 1 mM (3-isobutyl-1-methylxanthine) IBMX.
Cells were then distributed in 384 black well plates containing increasing concentrations of the different peptides in a fix volume of medium (without FCS).
After an incubation of 30 min at 37° C. in an humid incubator in 5% CO2, the reaction was stopped by adding a fixed volume of a solution containing a lysis buffer and cAMP-D2 (cAMP labeled with the dye d2) and the anti cAMP antibody linked to Europium and used for cAMP detection.
Readout of the experiment were performed on a fluorimeter allowing HTRF measurement. Activation curves were generated by plotting the intracellular value of cAMP versus log 10 of the compound concentration.
The 50% activation concentration (EC50) was calculated by nonlinear regression using the sigmoidal dose-response (variable slope) equation with Prism 5 software.
Emax % is determined as the maximal intracellular value of cAMP for test compound (upper limit of cAMP vs concentration curve) divided by the maximal intracellular value of cAMP for H2-relaxin determined in the same test occasion multiplied by 100. Emax %=100×[cAMPtest cpd]/[cAMPH2-RlX]

[1] = maximal cAMP relative to H2-relaxin maximum (100%)

EC50 [nM] | EMax, OVCAR 5 cells (cAMP) [1] [%] | Emax [1] [%] | Compound
4.4 | 88 |  | 127 (Ac-LEGREKVRAK(Ac)I[Aib][Aib]EG[Nle]STWS[Aib]RKLK([PEG2″-PEG2″-PEG2″-γGlu-γGlu-γGlu-Stearoyl])-NH2) [compound 127]
0.41 |  |  | 174 (Ac-LEGREKVRAQI[Aib][Aib]EG[Nle]STWS[Aib]RKKK-NH2; not fully specified (residue 25); printed as Ac-L-E-G-R-E-K-V-R-A-Q-I-Aib-Aib-E-G-Nle-S-T-W-S-Aib-R-K-K-K(PEG2-PEG2-PEG2-gE-gE-gE-Stea)-NH2) [compound 174]
 |  | 85 | CCCCCCCCCCCCCCCC(=O)NCCCC[C@H](NC(=O)[C@H](CCCCN)NC(=O)[C@H](CCCNC(=N)N)NC(=O)C(C)(C)NC(=O)[C@H](CO)NC(=O)[C@H](Cc1c[nH]c2ccccc12)NC(=O)[C@@H](NC(=O)[C@H](CO)NC(=O)[C@H](CCCC)NC(=O)CNC(=O)[C@H](CCC(=O)O)NC(=O)C(C)(C)NC(=O)C(C)(C)NC(=O)[C@@H](NC(=O)[C@H](C)NC(=O)[C@H](C)NC(=O)[C@H](CCCNC(=N)N)NC(=O)[C@@H](NC(=O)[C@H](CCCCN)NC(=O)[C@H](CCC(=O)O)NC(=O)[C@H](CCCNC(=N)N)NC(=O)CNC(=O)[C@H](CCC(=O)O)NC(=O)[C@H](CC(C)C)NC(C)=O)C(C)C)[C@@H](C)CC)[C@@H](C)O)C(N)=O [compound 1] (Ac-LEGREKVRAAI[Aib][Aib]EG[Nle]STWS[Aib]RKK(Palmitoyl)-NH2)
 |  | 100 | CCCCCCCCCCCCCCCC(=O)N[C@@H](CCC(=O)NCCCC[C@H](NC(=O)[C@H](CCCCN)NC(=O)[C@H](CCCNC(=N)N)NC(=O)C(C)(C)NC(=O)[C@H](CO)NC(=O)[C@H](Cc1c[nH]c2ccccc12)NC(=O)[C@@H](NC(=O)[C@H](CO)NC(=O)[C@H](CCCC)NC(=O)CNC(=O)[C@H](CCC(=O)O)NC(=O)C(C)(C)NC(=O)C(C)(C)NC(=O)[C@@H](NC(=O)[C@H](CCC(N)=O)NC(=O)[C@H](C)NC(=O)[C@H](CCCNC(=N)N)NC(=O)[C@@H](NC(=O)[C@H](CCCCN)NC(=O)[C@H](CCC(=O)O)NC(=O)[C@H](CCCNC(=N)N)NC(=O)CNC(=O)[C@H](CCC(=O)O)NC(=O)[C@H](CC(C)C)NC(C)=O)C(C)C)[C@@H](C)CC)[C@@H](C)O)C(N)=O)C(=O)O [compound 2] (Ac-LEGREKVRAQI[Aib][Aib]EG[Nle]STWS[Aib]RKK([γGlu-Palmitoyl])-NH2)
 |  | 93 | CCCCCCCCCCCCCCCCCC(=O)N[C@@H](CCC(=O)NCCCC[C@H](NC(=O)[C@H](CCCCN)NC(=O)[C@H](CCCNC(=N)N)NC(=O)C(C)(C)NC(=O)[C@H](CO)NC(=O)[C@H](Cc1c[nH]c2ccccc12)NC(=O)[C@@H](NC(=O)[C@H](CO)NC(=O)[C@H](CCCC)NC(=O)CNC(=O)[C@H](CCC(=O)O)NC(=O)C(C)(C)NC(=O)C(C)(C)NC(=O)[C@@H](NC(=O)[C@H](CCC(N)=O)NC(=O)[C@H](C)NC(=O)[C@H](CCCNC(=N)N)NC(=O)[C@@H](NC(=O)[C@H](CCCCN)NC(=O)[C@H](CCC(=O)O)NC(=O)[C@H](CCCNC(=N)N)NC(=O)CNC(=O)[C@H](CCC(=O)O)NC(=O)[C@H](CC(C)C)NC(C)=O)C(C)C)[C@@H](C)CC)[C@@H](C)O)C(N)=O)C(=O)O [compound 3] (Ac-LEGREKVRAQI[Aib][Aib]EG[Nle]STWS[Aib]RKK([γGlu-Stearoyl])-NH2)
 |  | 99 | CCCCCCCCCCCCCCCC(=O)N[C@@H](CCC(=O)N[C@@H](CCC(=O)NCCCC[C@H](NC(=O)[C@H](CCCCN)NC(=O)[C@H](CCCNC(=N)N)NC(=O)C(C)(C)NC(=O)[C@H](CO)NC(=O)[C@H](Cc1c[nH]c2ccccc12)NC(=O)[C@@H](NC(=O)[C@H](CO)NC(=O)[C@H](CCCC)NC(=O)CNC(=O)[C@H](CCC(=O)O)NC(=O)C(C)(C)NC(=O)C(C)(C)NC(=O)[C@@H](NC(=O)[C@H](C)NC(=O)[C@H](C)NC(=O)[C@H](CCCNC(=N)N)NC(=O)[C@@H](NC(=O)[C@H](CCCCN)NC(=O)[C@H](CCC(=O)O)NC(=O)[C@H](CCCNC(=N)N)NC(=O)CNC(=O)[C@H](CCC(=O)O)NC(=O)[C@H](CC(C)C)NC(=O)[C@H](CCC(=O)O)NC(C)=O)C(C)C)[C@@H](C)CC)[C@@H](C)O)C(N)=O)C(=O)O)C(=O)O [compound 4] (Ac-ELEGREKVRAAI[Aib][Aib]EG[Nle]STWS[Aib]RKK([γGlu-γGlu-Palmitoyl])-NH2)
 |  | 105 | CCCCCCCCCCCCCCCC(=O)N[C@@H](CCC(=O)N[C@@H](CCC(=O)NCCCC[C@H](NC(=O)[C@H](CCCNC(=N)N)NC(=O)C(C)(C)NC(=O)[C@H](CO)NC(=O)[C@H](Cc1c[nH]c2ccccc12)NC(=O)[C@@H](NC(=O)[C@H](CO)NC(=O)[C@H](CCSC)NC(=O)CNC(=O)[C@H](CCC(=O)O)NC(=O)C(C)(C)NC(=O)C(C)(C)NC(=O)[C@@H](NC(=O)[C@H](CCC(N)=O)NC(=O)[C@H](C)NC(=O)[C@H](CCCNC(=N)N)NC(=O)[C@@H](NC(=O)[C@H](CCCCN)NC(=O)[C@H](CCC(=O)O)NC(=O)[C@H](CCCNC(=N)N)NC(=O)CNC(=O)[C@H](CCC(=O)O)NC(=O)[C@H](CC(C)C)NC(C)=O)C(C)C)[C@@H](C)CC)[C@@H](C)O)C(N)=O)C(=O)O)C(=O)O [compound 5] (Ac-LEGREKVRAQI[Aib][Aib]EGMSTWS[Aib]RK([γGlu-γGlu-Palmitoyl])-NH2)
 |  | 100 | CCCCCCCCCCCCCCCC(=O)N[C@@H](CCC(=O)N[C@@H](CCC(=O)N[C@@H](CCC(=O)NCCCC[C@H](NC(=O)[C@H](CCCCN)NC(=O)[C@H](CCCCN)NC(=O)[C@H](CCCNC(=N)N)NC(=O)C(C)(C)NC(=O)[C@H](CO)NC(=O)[C@H](Cc1c[nH]c2ccccc12)NC(=O)[C@@H](NC(=O)[C@H](CO)NC(=O)[C@H](CCCC)NC(=O)CNC(=O)[C@H](CCC(=O)O)NC(=O)C(C)(C)NC(=O)C(C)(C)NC(=O)[C@@H](NC(=O)[C@H](C)NC(=O)[C@H](C)NC(=O)[C@H](CCCNC(=N)N)NC(=O)[C@@H](NC(=O)[C@H](CCCCN)NC(=O)[C@H](CCC(=O)O)NC(=O)[C@H](CCCNC(=N)N)NC(=O)CNC(=O)[C@H](CCC(=O)O)NC(=O)[C@H](CC(C)C)NC(=O)[C@H](CCC(=O)O)NC(C)=O)C(C)C)[C@@H](C)CC)[C@@H](C)O)C(N)=O)C(=O)O)C(=O)O)C(=O)O [compound 6] (Ac-ELEGREKVRAAI[Aib][Aib]EG[Nle]STWS[Aib]RKKK([γGlu-γGlu-γGlu-Palmitoyl])-NH2)
26.7 |  | 98 | CCCCCCCCCCCCCCCC(=O)N[C@@H](CCC(=O)N[C@@H](CCC(=O)N[C@@H](CCC(=O)NCCCC[C@H](NC(=O)[C@H](CCCCN)NC(=O)[C@H](CCCNC(=N)N)NC(=O)C(C)(C)NC(=O)[C@H](CO)NC(=O)[C@H](Cc1c[nH]c2ccccc12)NC(=O)[C@@H](NC(=O)[C@H](CO)NC(=O)[C@H](CCCC)NC(=O)CNC(=O)[C@H](CCC(=O)O)NC(=O)C(C)(C)NC(=O)C(C)(C)NC(=O)[C@@H](NC(=O)[C@H](CCC(N)=O)NC(=O)[C@H](C)NC(=O)[C@H](CCCNC(=N)N)NC(=O)[C@@H](NC(=O)[C@H](CCCCN)NC(=O)[C@H](CCC(=O)O)NC(=O)[C@H](CCCNC(=N)N)NC(=O)CNC(=O)[C@H](CCC(=O)O)NC(=O)[C@H](CC(C)C)NC(C)=O)C(C)C)[C@@H](C)CC)[C@@H](C)O)C(N)=O)C(=O)O)C(=O)O)C(=O)O [compound 8] (Ac-LEGREKVRAQI[Aib][Aib]EG[Nle]STWS[Aib]RKK([γGlu-γGlu-γGlu-Palmitoyl])-NH2)
